Tests used:
[1] = system: liver cholesterol; assay: Liver cholesterol (deposition of cholesterol and fat in the liver) of mice fed a cholesterol-rich diet (Table 1); assay type: in vivo; details: for Liver cholesterol: 0.2% in diet, oral, 8 to 12 days
[2] = system: total cholesterol value in the blood serum; assay: Total cholesterol in blood serum of mice fed a diet enriched with cholesterol and bile acids (Table 1); assay type: in vivo; details: 0.2% in diet, 8 to 12 days; for Serum cholesterol: oral
Procedure: The effectiveness of the compounds was tested by using mice fed on a specific diet which was enriched with cholesterol and bile acids. […] The amide compound as well was mixed with the specific diet in an amount of 0.2%, and continuously administered orally for 8 to 12 days. Then the total cholesterol value in the blood serum of the animals was evaluated.

[3] = experiment [III], control not given
[4] = experiment [VIII], control 2652

CCCCC/C=C\C/C=C\CCCCCCCC(=O)NC(C)c1ccc(Br)cc1 (stereo not drawn)
Liver cholesterol [1, 3]: 1341 mg/100 g.
Serum cholesterol ([2]; experiment [III], control 471): 322 mg %

CCC(NC(=O)CCCCCCCCCCCCCCC(C)C)c1ccc(C(C)(C)C)cc1 (stereo not drawn)
Liver cholesterol ([1]; experiment [IV], control 3145): 905 mg/100 g.
Serum cholesterol ([2]; experiment [IV], control 595): 297 mg %

CCCCC/C=C\C/C=C\CCCCCCCC(=O)NC(C)c1ccccc1[N+](=O)[O-] (stereo not drawn)
Liver cholesterol [1, 4]: 1003 mg/100 g.
Serum cholesterol ([2]; experiment [VIII], control 472): 299 mg %

CCCCC/C=C\C/C=C\CCCCCCCC(=O)NC(C)c1cccc([N+](=O)[O-])c1 (stereo not drawn)
Liver cholesterol [1, 4]: 992 mg/100 g.
Serum cholesterol ([2]; experiment [VIII], control 472): 287 mg %

CCCCC/C=C\C/C=C\CCCCCCCC(=O)NC(CC)c1ccc([N+](=O)[O-])cc1 (stereo not drawn)
Liver cholesterol [1, 4]: 980 mg/100 g.
Serum cholesterol ([2]; experiment [VIII], control 472): 331 mg %

CC/C=C\C/C=C\C/C=C\CCCCCCCC(=O)NC(CC)c1ccccc1[N+](=O)[O-] (stereo not drawn)
Liver cholesterol [1, 4]: 1091 mg/100 g.
Serum cholesterol ([2]; experiment [VIII], control 472): 300 mg %

CCCCCCCC/C=C\CCCCCCCC(=O)NC(C)c1ccccc1[N+](=O)[O-] (stereo not drawn)
Liver cholesterol [1, 4]: 1113 mg/100 g.
Serum cholesterol ([2]; experiment [VIII], control 472): 309 mg %

CCCCCCCC/C=C\CCCCCCCC(=O)NC12CC3CC(CC(C3)C1)C2
Liver cholesterol ([1]; experiment [IX], control 2200): 1120 mg/100 g.
Serum cholesterol ([2]; experiment [IX], control 336): 294 mg %

CC/C=C\C/C=C\C/C=C\CCCCCCCC(=O)NC12CC3CC(CC(C3)C1)C2
Liver cholesterol ([1]; experiment [IX], control 2200): 750 mg/100 g.
Serum cholesterol ([2]; experiment [IX], control 336): 279 mg %

CCCCCCCC/C=C\CCCCCCCC(=O)N(C1CCCCC1)C1CCCCC1
Liver cholesterol ([1]; experiment [XI], control 3451): 929 mg/100 g.
Serum cholesterol ([2]; experiment [XI], control 595): 309 mg %

CCCCCCCC/C=C\CCCCCCCC(=O)NC(C)c1ccc(CC)cc1 (racemic)
Liver cholesterol ([1]; experiment [X], control 3293): 1010 mg/100 g.
Serum cholesterol ([2]; experiment [X], control 554): 304 mg %

CCCCCCCC/C=C\CCCCCCCC(=O)NC(C)c1ccc(Br)cc1 (racemic)
Liver cholesterol ([1]; experiment [XI], control 3451): 1039 mg/100 g.
Serum cholesterol ([2]; experiment [XI], control 595): 299 mg %

CCCCCCCC/C=C\CCCCCCCC(=O)NC(CC)c1cccc([N+](=O)[O-])c1 (racemic)
Liver cholesterol ([1]; experiment [XI], control 3451): 1342 mg/100 g.
Serum cholesterol ([2]; experiment [XI], control 595): 362 mg %

CCCCCCCC/C=C\CCCCCCCC(=O)NC(C)c1ccc(OC)cc1 (racemic)
Liver cholesterol ([1]; experiment [XI], control 3451): 1210 mg/100 g.
Serum cholesterol ([2]; experiment [XI], control 595): 382 mg %

CC/C=C\C/C=C\C/C=C\CCCCCCCC(=O)NC(C)c1cccc(Cl)c1 (racemic)
Liver cholesterol ([1]; experiment [XI], control 3451): 1125 mg/100 g.
Serum cholesterol ([2]; experiment [XI], control 595): 309 mg %

CC/C=C\C/C=C\C/C=C\CCCCCCCC(=O)NC(CC)c1ccc(OC)cc1 (racemic)
Liver cholesterol ([1]; experiment [XI], control 3451): 1450 mg/100 g.
Serum cholesterol ([2]; experiment [XI], control 595): 325 mg %

CC(C)CCCCCCCCCCCCCCC(=O)NC(C)c1ccccc1 (single isomer, unassigned; (+)) [(+) N-(α-Methylbenzyl)-isostearamide]
Liver cholesterol ([1]; experiment [I], control 3585): 761 mg/100 g.
Serum cholesterol ([2]; experiment [I], control 546): 251 mg %

CCCCC/C=C\C/C=C\CCCCCCCC(=O)NC(C)c1ccccc1 (single isomer, unassigned; (+)) [(+) N-(α-Methylbenzyl)-linoleamide]
Liver cholesterol ([1]; experiment [I], control 3585): 764 mg/100 g.
Serum cholesterol ([2]; experiment [I], control 546): 267 mg %

CC/C=C\C/C=C\C/C=C\CCCCCCCC(=O)NC(C)c1ccccc1 (single isomer, unassigned; (+)) [(+) N-(α-Methylbenzyl)-linolenamide]
Liver cholesterol ([1]; experiment [I], control 3585): 784 mg/100 g.
Serum cholesterol ([2]; experiment [I], control 546): 269 mg %

CCCCCCCC/C=C\CCCCCCCC(=O)NC(C)c1ccccc1 (single isomer, unassigned; (+)) [(+) N-(α-Methylbenzyl)-oleamide]
Liver cholesterol ([1]; experiment [I], control 3585): 797 mg/100 g.
Serum cholesterol ([2]; experiment [I], control 546): 288 mg %

CCCCC/C=C\C/C=C\CCCCCCCC(=O)NC(CC)c1ccccc1 (single isomer, unassigned; (-)) [(-) (α-Ethylbenzyl)-linoleamide]
Liver cholesterol ([1]; experiment [II], control 3308): 821 mg/100 g.
Serum cholesterol ([2]; experiment [II], control 521): 251 mg %

CC(C)CCCCCCCCCCCCCCC(=O)NC(C)c1ccccc1 (single isomer, unassigned; (-)) [(-) (α-Methylbenzyl)-isostearamide]
Liver cholesterol ([1]; experiment [II], control 3308): 777 mg/100 g.
Serum cholesterol ([2]; experiment [II], control 521): 246 mg %

CCCCC/C=C\C/C=C\CCCCCCCC(=O)NC(C)c1ccccc1 (single isomer, unassigned; (-)) [(-) (α-Methylbenzyl)-linoleamide]
Liver cholesterol ([1]; experiment [II], control 3308): 908 mg/100 g.
Serum cholesterol ([2]; experiment [II], control 521): 286 mg %

CC/C=C\C/C=C\C/C=C\CCCCCCCC(=O)NC(C)c1ccccc1 (single isomer, unassigned; (-)) [(-) (α-Methylbenzyl)-linolenamide]
Liver cholesterol ([1]; experiment [II], control 3308): 767 mg/100 g.
Serum cholesterol ([2]; experiment [II], control 521): 253 mg %

CCCCCCCC/C=C\CCCCCCCC(=O)NC(C)c1ccccc1 (single isomer, unassigned; (-)) [(-) (α-Methylbenzyl)-oleamide]
Liver cholesterol ([1]; experiment [II], control 3308): 808 mg/100 g.
Serum cholesterol ([2]; experiment [II], control 521): 283 mg %

CCCCCC=CCC=CCCCCCCCC(=O)NC(Cc1ccccc1)c1ccccc1 (stereo not drawn) [C17 H31 CO]
Liver cholesterol ([1]; experiment [V], control 2640): 544 mg/100 g.
Serum cholesterol ([2]; experiment [V], control 372): 214 mg %

CCCCC/C=C\C/C=C\CCCCCCCC(=O)O [Linoleic acid, reference compound]
prevention of deposition of cholesterol and fat in the liver ([1]; animals fed on a diet rich in cholesterol): such effectiveness is never observed
Liver cholesterol ([1]; experiment [II], control 3308): 4491 mg/100 g.
Liver cholesterol ([1]; experiment [I], control 3585): 4585 mg/100 g.
Liver cholesterol ([1]; experiment [VII], control 3535): 4550 mg/100 g.
Liver cholesterol ([1]; experiment [V], control 2640): 3124 mg/100 g.
Serum cholesterol ([2]; experiment [II], control 521): 329 mg %
Serum cholesterol ([2]; experiment [I], control 546): 324 mg %
Serum cholesterol ([2]; experiment [VII], control 508): 341 mg %
Serum cholesterol ([2]; experiment [V], control 372): 351 mg %
ineffective cases and variation of effectiveness ([2]; mice): ineffective cases were sometimes observed due to the individual difference of the animals, and the effectiveness varied considerably even in the same individual animal

CCCCCC=CCC=CCCCCCCCC(=O)NC(Cc1ccccc1)c1ccccc1 (stereo not drawn) [d- C17 H31 CO]
Liver cholesterol ([1]; experiment [V], control 2640): 500 mg/100 g.
Serum cholesterol ([2]; experiment [V], control 372): 200 mg %

CCCCCCCC/C=C\CCCCCCCC(=O)NC(Cc1ccccc1)c1ccccc1 (stereo not drawn) [d- drawing 33]
Liver cholesterol ([1]; experiment [V], control 2640): 729 mg/100 g.
Serum cholesterol ([2]; experiment [V], control 372): 222 mg %

CC(C)CCCCCCCCCCCCCCC(=O)NC(Cc1ccccc1)c1ccccc1 (stereo not drawn) [d- iso-C17 H35 CO]
Liver cholesterol ([1]; experiment [V], control 2640): 561 mg/100 g.
Serum cholesterol ([2]; experiment [V], control 372): 209 mg %

CCCCCCCC/C=C\CCCCCCCC(=O)NC(C)c1ccccc1 (stereo not drawn) [drawing 7]
Liver cholesterol ([1]; experiment [II], control 3308): 815 mg/100 g.
Serum cholesterol ([2]; experiment [II], control 521): 290 mg %

CCCCCCCC/C=C\CCCCCCCC(=O)NC(C)c1ccccc1 (stereo not drawn) [drawing 8]
Liver cholesterol ([1]; experiment [II], control 3308): 1330 mg/100 g.
Serum cholesterol ([2]; experiment [II], control 521): 295 mg %

CCCCCCCCCCCCCC(=O)NC(C)c1ccccc1 (stereo not drawn) [drawing 9]
Liver cholesterol ([1]; experiment [II], control 3308): 1620 mg/100 g.
Serum cholesterol ([2]; experiment [II], control 521): 302 mg %

CCCCCCCCCCCCCC(=O)NC(C)c1ccccc1 (stereo not drawn) [drawing 10]
Liver cholesterol ([1]; experiment [II], control 3308): 1820 mg/100 g.
Serum cholesterol ([2]; experiment [II], control 521): 252 mg %

CCCCCCCCCCCCCCCC(=O)NC(C)c1ccccc1 (stereo not drawn) [drawing 11]
Liver cholesterol ([1]; experiment [II], control 3308): 906 mg/100 g.
Serum cholesterol ([2]; experiment [II], control 521): 300 mg %

CCCCCCCCCCCCCCCC(=O)NC(C)c1ccccc1 (stereo not drawn) [drawing 12]
Liver cholesterol ([1]; experiment [II], control 3308): 1160 mg/100 g.
Serum cholesterol ([2]; experiment [II], control 521): 314 mg %

CCCCC/C=C\C/C=C\CCCCCCCC(=O)NC(CC)c1ccccc1 (stereo not drawn) [drawing 13]
Liver cholesterol ([1]; experiment [II], control 3308): 992 mg/100 g.
Serum cholesterol ([2]; experiment [II], control 521): 274 mg %

CCCCC/C=C\C/C=C\CCCCCCCC(=O)NC(CC)c1ccccc1 (stereo not drawn) [drawing 14]
Liver cholesterol ([1]; experiment [II], control 3308): 1042 mg/100 g.
Serum cholesterol ([2]; experiment [II], control 521): 302 mg %

CCCCC/C=C\C/C=C\CCCCCCCC(=O)NC(C)c1ccc(Cl)cc1 (stereo not drawn) [drawing 17]
Liver cholesterol [1, 3]: 946 mg/100 g.
Serum cholesterol ([2]; experiment [III], control 471): 225 mg %

CCCCC/C=C\C/C=C\CCCCCCCC(=O)NC(C)c1ccc(Cl)c(Cl)c1 (stereo not drawn) [drawing 18]
Liver cholesterol [1, 3]: 856 mg/100 g.
Serum cholesterol ([2]; experiment [III], control 471): 315 mg %

CCCCC/C=C\C/C=C\CCCCCCCC(=O)NC(CC)c1ccc(C)cc1 (stereo not drawn) [drawing 21]
Liver cholesterol [1, 3]: 1065 mg/100 g.
Serum cholesterol ([2]; experiment [III], control 471): 242 mg %

CCCCC/C=C\C/C=C\CCCCCCCC(=O)NC(C)c1ccc(C)cc1 (stereo not drawn) [drawing 22]
Liver cholesterol [1, 3]: 1047 mg/100 g.
Serum cholesterol ([2]; experiment [III], control 471): 237 mg %

CCCCC/C=C\C/C=C\CCCCCCCC(=O)NC(C)c1ccc(C)cc1 (stereo not drawn) [drawing 23]
Liver cholesterol ([1]; experiment [IV], control 3145): 828 mg/100 g.
Serum cholesterol ([2]; experiment [IV], control 595): 240 mg %

CCCCC/C=C\C/C=C\CCCCCCCC(=O)NC(CC)c1ccc(C)cc1 (stereo not drawn) [drawing 24]
Liver cholesterol ([1]; experiment [IV], control 3145): 908 mg/100 g.
Serum cholesterol ([2]; experiment [IV], control 595): 321 mg %

CCCCC/C=C\C/C=C\CCCCCCCC(=O)NC(C)c1ccc(Cl)cc1 (stereo not drawn) [drawing 25]
Liver cholesterol ([1]; experiment [IV], control 3145): 826 mg/100 g.
Serum cholesterol ([2]; experiment [IV], control 595): 217 mg %

CCCCC/C=C\C/C=C\CCCCCCCC(=O)NC(C)c1ccc(Cl)c(Cl)c1 (stereo not drawn) [drawing 26]
Liver cholesterol ([1]; experiment [IV], control 3145): 1000 mg/100 g.
Serum cholesterol ([2]; experiment [IV], control 595): 251 mg %

CC/C=C\C/C=C\C/C=C\CCCCCCCC(=O)NC(C)c1ccccc1C (stereo not drawn) [drawing 29]
Liver cholesterol ([1]; experiment [IV], control 3145): 913 mg/100 g.
Serum cholesterol ([2]; experiment [IV], control 595): 222 mg %
